One experiment addresses T1, GPR6 (Homo sapiens, UniProt P46095).
T1 construct: expressed in transfected cells; host or cells: CHO cells
The experiment in a line: GPR6 antagonist functional cAMP assay (LANCE Ultra cAMP TR-FRET, CHO cells stably expressing GPR6). The experiment is classed as cell-based. In short, it runs like this: (§1)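 Stable CHO-GPR6 or CHO-GPR3 cells (10,000/well) in Krebs-Ringer buffer with 0.1% BSA and 150 μM Ro 20-1724 were exposed to compounds for 45 min at 37° C (0.1% DMSO). cAMP read by LANCE Ultra TR-FRET; IC50 from 4-parameter fit normalized to DMSO and reference compounds.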
A general note: Changes in cAMP serve as a functional read-out for many G protein-coupled receptors.

A further experiment deals with T2, GPR3 (Homo sapiens, UniProt P46089).
T2 construct: expressed in transfected cells; host or cells: CHO cells
In words: GPR3 antagonist functional cAMP assay (LANCE Ultra cAMP TR-FRET, CHO cells stably expressing GPR3). The experiment is classed as cell-based. In outline:
as §1

Setting [1] is: CHO cells stably expressing GPR6, cAMP assay (Example 24).
[2] abbreviates: CHO cells stably expressing GPR3, cAMP assay (Example 24).
The mark [3] stands for this setting: CHO cells stably expressing GPR6, cAMP assay.
Where [4] appears, read: CHO cells stably expressing GPR3, cAMP assay.

We go through 19 molecules from patent US20260042755A1, “GPR6 INVERSE AGONISTS” (MapLight Therapeutics, Inc., priority 2022, published 2026).

Molecules are shown by their SMILES.

T1 sequence (P46095 whole entry): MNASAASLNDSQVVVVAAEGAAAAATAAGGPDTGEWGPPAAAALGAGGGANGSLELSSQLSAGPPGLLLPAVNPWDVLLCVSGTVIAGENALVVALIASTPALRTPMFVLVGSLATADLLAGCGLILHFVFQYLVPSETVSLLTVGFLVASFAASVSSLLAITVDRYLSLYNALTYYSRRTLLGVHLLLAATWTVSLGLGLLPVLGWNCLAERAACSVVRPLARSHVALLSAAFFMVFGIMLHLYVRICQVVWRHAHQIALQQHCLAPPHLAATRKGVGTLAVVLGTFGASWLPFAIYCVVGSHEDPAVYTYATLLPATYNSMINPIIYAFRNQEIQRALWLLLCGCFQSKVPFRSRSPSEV
T2 sequence (P46089 whole entry, species assumed): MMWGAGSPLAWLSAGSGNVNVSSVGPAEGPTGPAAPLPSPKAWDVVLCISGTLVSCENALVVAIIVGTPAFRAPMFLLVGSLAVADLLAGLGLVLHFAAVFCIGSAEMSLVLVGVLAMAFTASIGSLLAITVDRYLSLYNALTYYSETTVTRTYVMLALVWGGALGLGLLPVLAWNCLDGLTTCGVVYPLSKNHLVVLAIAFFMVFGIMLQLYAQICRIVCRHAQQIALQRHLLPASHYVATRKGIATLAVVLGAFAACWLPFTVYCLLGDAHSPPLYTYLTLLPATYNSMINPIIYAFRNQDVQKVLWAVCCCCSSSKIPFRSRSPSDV

Consider `CNc1nccc(-c2nc3c(nc2N2CCC(Oc4ccc(F)cc4F)CC2)CCN(C(C)=O)C3)n1` [Compound 473, 1-{2-[4-(2,4-difluorophenoxy)piperidin-1-yl]-3-[2-(methylamino)pyrimidin-4-yl]-5H,6H,7H,8H-pyrido[3,4-b]pyrazin-6-yl}ethan-1-one], for which the half-maximal inhibitory concentration (IC50) against GPR6 (setting [1]) was in the range of 0.1 to 1 µM; at GPR3 (setting [2]), 1 to 30 µM.

Turning to `CCn1cc(-c2nc3c(nc2N2CCC(Oc4ccc(F)cc4F)CC2)CCN(C(=O)C2COCCO2)C3)cn1` (centres unmarked) [Compound 474, 4-(2,4-difluorophenoxy)-1-[6-(1,4-dioxane-2-carbonyl)-3-(1-ethyl-1H-pyrazol-4-yl)-5H,6H,7H,8H-pyrido[3,4-b]pyrazin-2-yl]piperidine], the IC50 at GPR6 (setting [1]) is below 0.1 µM; against GPR3 (setting [2]), 1 to 30 µM.

With `CC(=O)N1CCc2nc(N3CCC(Oc4ccc(F)cc4F)CC3)c(-c3ccnc(N)n3)nc2C1` [Compound 475, 1-[3-(2-aminopyrimidin-4-yl)-2-[4-(2,4-difluorophenoxy)piperidin-1-yl]-5H,6H,7H,8H-pyrido[3,4-b]pyrazin-6-yl]ethan-1-one], the IC50 at GPR6 (setting [1]) was below 0.1 µM; against GPR3 (setting [2]), 1 to 30 µM.

In the case of `CCn1cnc(-c2nc3c(nc2N2CCC(Oc4ccc(F)cc4F)CC2)CCN(C(C)=O)C3)c1` [Compound 476, 1-{2-[4-(2,4-difluorophenoxy)piperidin-1-yl]-3-(1-ethyl-1H-imidazol-4-yl)-5H,6H,7H,8H-pyrido[3,4-b]pyrazin-6-yl}ethan-1-one], the 50% inhibitory concentration (IC50) at GPR6 (setting [1]) and against GPR3 (setting [2]) was 1 to 30 µM each time.

Turning to `CCc1cccc(-c2nc3c(nc2N2CCC(Oc4ccc(F)cc4F)CC2)CCN(C(C)=O)C3)n1` [Compound 477, 1-{2-[4-(2,4-difluorophenoxy)piperidin-1-yl]-3-(6-ethylpyridin-2-yl)-5H,6H,7H,8H-pyrido[3,4-b]pyrazin-6-yl}ethan-1-one], the half-maximal inhibitory concentration (IC50) against GPR6 (setting [1]) and at GPR3 (setting [2]) was 1 to 30 µM in each case.

Regarding `CCn1cc(-c2nc3c(nc2N2CCC(Oc4ccc(F)cc4F)CC2)CCN(S(N)(=O)=O)C3)cn1` [Compound 478, 2-(4-(2,4-difluorophenoxy)piperidin-1-yl)-3-(1-ethyl-1H-pyrazol-4-yl)-7,8-dihydropyrido[3,4-b]pyrazine-6(5H)-sulfonamide], the half-inhibitory concentration (IC50) lay in the range of 0.1 to 1 µM at GPR6 (setting [1]) and 1 to 30 µM against GPR3 (setting [2]).

Consider `CCc1nccc(-c2nc3c(nc2N2CCC(Oc4ccc(F)cc4F)CC2)CCN(C(C)=O)C3)n1` [Compound 479, 1-{2-[4-(2,4-difluorophenoxy)piperidin-1-yl]-3-(2-ethylpyrimidin-4-yl)-5H,6H,7H,8H-pyrido[3,4-b]pyrazin-6-yl}ethan-1-one], for which the IC50 at GPR6 (setting [1]) and against GPR3 (setting [2]) was 1 to 30 µM throughout.

Take `Cc1cncc2nc(-c3cnn(C)c3)c(N3CCC(Oc4ccc(F)cc4F)CC3)nc12` [Compound 480, 4-(2,4-difluorophenoxy)-1-[8-methyl-3-(1-methyl-1H-pyrazol-4-yl)pyrido[3,4-b]pyrazin-2-yl]piperidine]: the IC50 fell in the range of 0.1 to 1 µM at GPR6 (setting [1]) and 1 to 30 µM at GPR3 (setting [2]).

As for `CCn1cc(-c2nc3c(nc2N2CCC(Oc4ccc(F)cc4F)CC2)CCN(C(=O)C2CC(F)(F)CN2)C3)cn1` (centres unmarked) [Compound 481, (2-(4-(2,4-difluorophenoxy)piperidin-1-yl)-3-(1-ethyl-1H-pyrazol-4-yl)-7,8-dihydropyrido[3,4-b]pyrazin-6(5H)-yl)(4,4-difluoropyrrolidin-2-yl)methanone], the values for the IC50 against GPR6 (setting [1]) and on GPR3 (setting [2]) were 0.1 to 1 µM and 1 to 30 µM, respectively.

Regarding `CN1CC(c2cc3nc(N4CCC(Oc5ccc(F)cc5F)CC4)c(-c4cnn(C)c4)nc3cn2)OC1=O` (centres unmarked) [Compound 482, 5-(2-(4-(2,4-difluorophenoxy)piperidin-1-yl)-3-(1-methyl-1H-pyrazol-4-yl)pyrido[3,4-b]pyrazin-7-yl)-3-methyloxazolidin-2-one], the IC50 at GPR6 (setting [1]) lay in the range of 0.1 to 1 µM; against GPR3 (setting [2]), 1 to 30 µM.

As to `CCn1cc(-c2nc3c(nc2N2CCC(Oc4ccc(F)cc4F)CC2)CCN(C(=O)C2CC(F)(F)CN2C)C3)cn1` (centres unmarked) [Compound 483, (4,4-difluoro-1-methylpyrrolidin-2-yl)(2-(4-(2,4-difluorophenoxy)piperidin-1-yl)-3-(1-ethyl-1H-pyrazol-4-yl)-7,8-dihydropyrido[3,4-b]pyrazin-6(5H)-yl)methanone], the values for the IC50 against GPR6 (setting [1]) and against GPR3 (setting [2]) were 0.1 to 1 µM and 1 to 30 µM, respectively.

For `CCn1cc(-c2nc3c(nc2N2CCC(Oc4ccc(F)cc4F)CC2)CCN(C(=O)C(O)CO)C3)cn1` (centres unmarked) [Compound 484, 1-{2-[4-(2,4-difluorophenoxy)piperidin-1-yl]-3-(1-ethyl-1H-pyrazol-4-yl)-5H,6H,7H,8H-pyrido[3,4-b]pyrazin-6-yl}-2,3-dihydroxypropan-1-one], the IC50 is 0.1 to 1 µM against GPR6 (setting [1]) and 1 to 30 µM at GPR3 (setting [2]).

With `CCn1cc(-c2nc3c(nc2N2CCC(Oc4ccc(F)cc4F)CC2)CCN(S(C)(=N)=O)C3)cn1` (centres unmarked) [Compound 485, 2-(4-(2,4-difluorophenoxy)piperidin-1-yl)-3-(1-ethyl-1H-pyrazol-4-yl)-6-(S-methylsulfonimidoyl)-5,6,7,8-tetrahydropyrido[3,4-b]pyrazine], the IC50 was in the range of 0.1 to 1 µM against GPR6 (setting [1]) and 1 to 30 µM at GPR3 (setting [2]).

With `Cn1cc(-c2nc3c(nc2N2CCC(Oc4ccc(F)cc4F)CC2)CC2COC(=O)N2C3)cn1` (centres unmarked) [Compound 486, 2-(4-(2,4-difluorophenoxy)piperidin-1-yl)-3-(1-methyl-1H-pyrazol-4-yl)-9a,10-dihydro-5H-oxazolo[3′,4′:1,6]pyrido[3,4-b]pyrazin-7(9H)-one], the values for the IC50 on GPR6 (setting [1]) and on GPR3 (setting [2]) were 0.1 to 1 µM and 1 to 30 µM, respectively.

Regarding `Cc1nccc2nc(N3CCC(Oc4ccc(F)cc4F)CC3)c(-c3cnn(C)c3)nc12` [Compound 487, 4-(2,4-difluorophenoxy)-1-[5-methyl-3-(1-methyl-1H-pyrazol-4-yl)pyrido[3,4-b]pyrazin-2-yl]piperidine], the results for the IC50 at GPR6 (setting [1]) and against GPR3 (setting [2]) were below 0.1 µM and 1 to 30 µM, respectively.

As for `Cn1cc(-c2nc3c(nc2N2CCC(Oc4ccc(F)cc4F)CC2)CC2COCC(=O)N2C3)cn1` (centres unmarked) [Compound 488, 6-[4-(2,4-difluorophenoxy)piperidin-1-yl]-5-(1-methyl-1H-pyrazol-4-yl)-12-oxa-1,4,7-triazatricyclo[8.4.0.0^3,8]tet radeca-3(8),4,6-trien-14-one], the 50% inhibitory concentration (IC50) lay within 0.1 to 1 µM on GPR6 (setting [1]) and 1 to 30 µM against GPR3 (setting [2]).

Take `CC(=O)N1CCc2nc(N3CCC(Oc4ccc(F)cc4F)CC3)c(C3CC3CO)nc2C1` (centres unmarked) [Compound 489, 1-(2-(4-(2,4-difluorophenoxy)piperidin-1-yl)-3-(2-(hydroxymethyl)cyclopropyl)-7,8-dihydropyrido[3,4-b]pyrazin-6(5H)-yl)ethan-1-one]: the 50% inhibitory concentration (IC50) at GPR6 (setting [3]) is 0.1 to 1 µM; at GPR3 (setting [4]), 1 to 30 µM.

Consider `CC(=O)N1Cc2nc(-c3cnn(C)c3)c(N3CCC(Oc4ccc(F)cc4F)CC3)nc2CC1CO` (centres unmarked) [Compound 490, 1-{2-[4-(2,4-difluorophenoxy)piperidin-1-yl]-7-(hydroxymethyl)-3-(1-methyl-1H-pyrazol-4-yl)-5H,6H,7H,8H-pyrido[3,4-b]pyrazin-6-yl}ethan-1-one], for which the IC50 is 0.1 to 1 µM at GPR6 (setting [3]) and 1 to 30 µM against GPR3 (setting [4]).

`CCn1cc(-c2nc3c(nc2N2CCC(Oc4ccc(F)cc4F)CC2)CCN(C(=O)C2COCCN2)C3)cn1` (centres unmarked) [Compound 491, 3-{2-[4-(2,4-difluorophenoxy)piperidin-1-yl]-3-(1-ethyl-1H-pyrazol-4-yl)-5H,6H,7H,8H-pyrido[3,4-b]pyrazine-6-carbonyl}morpholine]: the IC50 was below 0.1 µM on GPR6 (setting [3]) and 1 to 30 µM against GPR3 (setting [4]).

As usually defined, the IC50 is the concentration at which inhibition is half-maximal. Low values mean inhibition by little substance, high ones a need for much substance.
